Assay results published in patent US20210246164A1, “PEPTIDIC PROTEIN KINASE C INHIBITORS AND USES THEREOF” (UNIVERSITE DE GENEVE, priority 2016, published 2021).
Where a SMILES comes first, the peptide text is derived from it. Where no end group is shown, it is not given here. The star is where a group is joined. Myristoyl = CCCCCCCCCCCCCC(=O)*

How the values were obtained:
[1] = test system: primary human nasal epithelial cell monolayers; assay: Permeabilization of fluorescein-conjugated dextran (FD) across nasal epithelial monolayers (cumulative release, Papp); type: cell-based
Method: (§1) To assess the potential effects of peptides of the invention on the permeabilization of therapeutic molecules, fluorescein-conjugated dextrans (FD) were used to as a model for assessing paracellular drug transport (apical to basolateral) across the epithelial monolayer.
(§2) To ensure that the integrity of the monolayer was maintained during the course of the experiment, trans-epithelial electrical resistance (TEER) was measured before and after these studies, as described below.
(§3) Mucilair™ human primary nasal and bronchial epithelial cells (Epithelix sarl, Geneva, Switzerland) were used (Huang et. al., 2013, Toxicol. in Vitro 27: 1151-1156).
(§4) Before each experiment, the culture medium was removed from each compartment and the monolayer was washed once with 200 μl of saline (0.9%) and once with warm Hanks' Balanced Salt Solution (HBSS) (37° C.). In the basolateral compartment, 600 μL of pre-warmed HBSS was placed and the cells were returned to the incubator at 37° C. for 30 minutes to equilibrate. After equilibration, the peptides of the invention were applied to the apical side of an epithelial monolayer 5 minutes prior to the addition of FD solution. Peptide 1 according to the invention (P1 of SEQ ID NO: 2) was tested in comparison with comparative peptides C1 (SEQ ID NO: 4) and C2 (SEQ ID NO: 5). FD having a molecular weight (MW) of 4 and 150 kDa were used.
(§5) All peptides were used at a final concentration of 10 μM. The vehicle was used as a control (CTRL). The FD solution was added to the apical compartment to make a final volume of 200 μl. Samples of 100 μL were taken from the basal compartment of each well every 30 minutes over a period of 150 minutes, with each volume being replaced with equal amount of fresh warm buffer to maintain sink condition. The fluorescence of FD was measured in black 96-well plates using a fluorescence plate reader (BioTek Synergy Mx plate reader, BioTek Instruments GmbH, Lucerne, Switzerland), using excitation and emission wavelengths of 485 and 520 nm, respectively. Cumulative release (ng) corresponds to the actual amount of drug released cumulatively and corresponds to the amount in the suspension medium at any time plus the amount of the drug lost during each sampling.
(§6) Trans-epithelial electrical resistance (TEER): After addition of 200 μl of culture medium to the apical compartment of the tissue cultures, resistance was measured across cultures with an EVOMX volt-ohm-meter (World Precision Instruments UK, Stevenage) in triplicate for each time point. The TEER values (Ω) were converted normalized by using the following formula: TEER (Ωcm^2)=(resistance value (Ω)−100 (Ω))×0.33 (cm^2), where 100Ω is the resistance of the membrane and 0.33 cm^2 is the total surface of the epithelium.
(§7) To assess the role of the membrane penetrating group (myristoyl) in peptides of the invention in the enhancing of the permeability of macromolecules through epithelial cell layers, the permeabilizing capacity of peptide P1 of the invention was compared to a comparative peptide C3 (SEQ ID NO: 6) corresponding to the same peptide without the myristoyl group. The permeabilizing capacity of a peptide P2 (SEQ ID NO: 3) of the invention was also assessed. Uptake experiments and TEER were conducted as described in Example 2.
(§8) To assess the duration of the permeabilization effect of the peptide of the invention, apparent permeability of peptides of various lengths was evaluated as follows. Apparent permeability refers to the amount of released FD at that time point when the sample is collected.
(§9) The tested Peptides, uptake experiments and TEER were as described in Example 2.
(§10) Apparent permeability of FD: The apparent permeability (Papp) of FD was calculated using equation 1: Papp=(dQ/dt)/A*C0 (1)

[2] = test system: non-small cell lung cancer (NSCLC); details: compared to chemotherapies; cited from earlier work
[3] = test system: OCA_EGFR19del cultures (HCC827 cells); assay: Tumor size in OncoCilAir non-small cell lung cancer model; type: cell-based
Source text: HCC827 cells (lung adenocarcinoma) mutated in the tyrosine kinase domain of the EGFR (epidermal growth factor receptor) were used (model OncoCilAir™, wherein Non-Small Cell Lung Cancer (NSCLC) cells were tagged with green fluorescent protein (GFP)).
Tumour morphometry was resolved by fluorescence microscopy using a Zeiss Axiocam microscope platform. Growth curves were based on various images were acquired every 2 days and the area of the green fluorescent protein positive (GFP^+) tumour was measured using the Image-Pro Plus Software (MediaCybernetics, Rockville, Md., USA). For each time point, the ratio of the total area occupied by tumours to the size of the insert was calculated and expressed as percentage of day 0, at the start of the treatment (tumor occupancy). Identical analyses settings, i.e. fixed fluorescence intensity threshold and fixed size threshold ([…]) were applied to all processed images. Percentage of tumour growth inhibition was calculated using the formula: (1−[tumour occupancy in treatment group/tumour occupancy in control group]×100).

[4] = test system: Antigen-specific serum antibodies (IgG total and IgG1); assay: Intranasal immunization with Ova, antigen-specific serum antibodies by ELISA; type: in vivo, mice; details: i.n. 5 μg Ova with 5 μg P1 vs Ova alone; after three immunizations
Source text: The effect of peptides of the invention on the efficacy of mucosal vaccines has been investigated by administering a combination of P1 with a soluble protein antigen and induced immunization has been investigated.
6 week-old female C57-BL/6 mice were purchased from Charles River Laboratories (Harlan, France) and hosted under standard conditions following the corresponding guidelines of Animal Ethic Committee. Mice (n=5) were immunized by intranasal (i.n.) administration under anesthesia on days 0, 14, and 28 with the following immunogens: saline (PBS) as a negative control, ovalbumin (Ova) (in NaCl 0.9% solution) or Ova+P1 Ova/dose (5 μg) (mixture of solution of Ova in NaCl 0.9% and solution of P1 in NaCl 0.9%) as a mixture were administered to each animal group in 12 μL (6 μL per nostril). P1 was used at a concentration of 5 μg/dose. […]
Antigen-specific serum antibodies (IgG total and IgG1) were measured by ELISA (enzyme-linked immunosorbent assay). […] Plates were washed 4 times, and HRP was quantified by adding 100 μl of TMB (3,3′,5,5′-Tetramethylbenzidine) substrate (Pierce Protein Research Products; Rockford, Ill.). Antibody titers were determined at the midpoint of the optical density-log dilution curves after subtraction of the naive background, and none-responding mice were given an arbitrary titer of 10.

in vitro = details: human, Caco-2 cells
Method: (§12) Viability of Caco-2 cells (human intestinal epithelial cell line) was determined by a cell proliferation assay using WST-1 based colorimetric assay. […] WST-1 reagent (diluted 1:10 in cell culture medium) was added as described in the instruction manual (Roche Diagnostics GMBH, Mannheim, Germany). Following 1-3 h incubation at 37° C. with the peptides or controls, absorbance at 450 nm (reference at 690 nm) was measured by a BioTek Synergy Mx plate reader. Percentage of cell viability was calculated based on the absorbance measured relative to that of cells exposed to only culture medium (control group). Sodium dodecyl sulfate (SDS) at 2% was used as a positive control for cell toxicity.

Caco-2 cells = assay: Cell viability, WST-1 based colorimetric assay; details: 24 hours
Method: as §12

[5] = test system: primary human bronchial epithelial cell monolayers; assay: Permeabilization of fluorescein-conjugated dextran (FD) across bronchial epithelial monolayers (cumulative release, Papp); type: cell-based
Method: as §1, §2, §3, §4, §5, §6, §7, §8, §9, §10

[6] = test system: TJ proteins occludin and ZO-1 in primary human nasal epithelial cell monolayers; assay: Immunofluorescence of TJ proteins occludin and ZO-1, nasal cells (confocal microscopy); type: cell-based; details: 50 μM peptide, 2 hours
Method: (§11) The effect of peptides of the invention on the tight junction structure of human primary nasal and bronchial epithelial cells were evaluated by confocal microscopy as follows. Mucilair™ human primary nasal and bronchial epithelial cells (Epithelix Sarl, Geneva, Switzerland) were incubated with 50 μM of peptide of the invention P1 or comparative peptides C1 and C2 for 2 hours and washed twice with phosphate buffered saline (PBS) (without Ca^2+/Mg^2+) at 37° C. Cells were fixed with methanol/acetone (50:50) for 5 minutes at […], air-dried, and washed with TBST (mixture of tris-buffered saline (TBS) and Polysorbate 20). Cell monolayers were blocked using a solution of 3% bovine serum albumin (BSA) in PBS for 60 minutes at room temperature and incubated with primary antibody against occludin (Cat: 331588, Invitrogen, Zug, Switzerland); dilution (1:200)) and ZO-1 (zonula occludens-1 protein) (Cat: 339194, Invitrogen, Zug, Switzerland); dilution (1:200)) in dilution buffer. Samples were mounted (Vectashield mounting media with DAPI (4′,6-diamidino-2-phenylindole); Vector Laboratories) and assessed within the next 24 hours by using a laser-scanning confocal microscope (CLSM; Plan-Apochromat 63/1.40 (oil) DIC objective, Zeiss Axiovert 100M-LSM 510; Carl Zeiss, Oberkochen, Germany). […]

[7] = test system: TJ proteins occludin and ZO-1 in primary human bronchial epithelial cell monolayers; assay: Immunofluorescence of TJ proteins occludin and ZO-1, bronchial cells (confocal microscopy); type: cell-based; details: 50 μM peptide, 2 hours
Method: as §11

[8] = peptide 10 μM apical, 150 minutes, vs control
[9] = P1 1 μM apical + gefitinib 1 μM apical

Myr-AKRWR (Myristoyl-AKRWR) [Peptide P2]
permeability of fluorescein conjugated dextran of 4 kDa (cumulative release) [1, 8]: increased the permeability of the fluorescein conjugated dextran of 4 kDa in a significant manner

COc1cc2ncnc(Nc3ccc(F)c(Cl)c3)c2cc1OCCCN1CCOCC1 [gefitinib, N-(3-Chloro-4-fluorophenyl)-7-methoxy-6-(3-morpholinopropoxy) quinazolin-4-amine]
progression free survival (PFS) [2]: 7.7-12.9 months

CCCCCCCCCCCCCC(=O)N[C@@H](C)C(=O)N[C@@H](CCCNC(=N)N)C(=O)N[C@@H](CCCNC(=N)N)C(=O)N[C@@H](Cc1c[nH]c2ccccc12)C(=O)N[C@@H](CCCNC(=N)N)C(=O)O [Peptide P1, Myr-ARRWR] (Myristoyl-ARRWR-OH)
effect of combination on tumour size vs gefitinib alone [3, 9]: significantly more efficacious than the gefitinib alone | time at which maximal therapeutic effect was obtained [3, 9]: 3 days | effect of combination on tumour progression vs gefitinib alone ([3]; P1 1 μM apical + gefitinib 1 μM basal): significantly potentiated the effects of the drug on tumour progression | effect of combination on tumour progression vs gefitinib alone ([3]; P1 1 μM apical + gefitinib 5 μM basal): significantly potentiated the effects of the drug on tumour progression | effect on tumor size ([3]; P1 alone 1 μM apical, 6 expositions over 14 days, vs DMSO): had no effect on tumor size | Ova-specific serum IgG1 response [4]: significantly higher | Ova-specific serum IgG (total) response [4]: significantly higher | permeability of FD of 150 kDa (cumulative release) [1, 8]: significantly increases the permeability | permeability of fluorescein conjugated dextran of 4 kDa (cumulative release) [1, 8]: increased the permeability of the fluorescein conjugated dextran of 4 kDa in a significant manner | Papp for FD of 150 kDa over time ([1]; peptide 10 μM, 150 minutes): immediate increase in the first 30 minutes and steadily decreased therefrom | reversibility of permeabilization of FD 4 kDa (decrease in Papp overtime) ([1]; peptide 10 μM, 150 minutes): reversible | reversibility of the permeabilization effect, FD of 150 kDa ([1]; peptide 10 μM, FIG. 6): Reversibility of the permeabilization effect was also observed | viability at 24 h, 100 µM (in vitro): 76.7% | toxicity on Caco-2 cells (Caco-2 cells; 50 μM): did not show any toxicity | concentration non-toxic to cells (Caco-2 cells): at least 50 μM | permeability of FD of 150 kDa (cumulative release) [5, 8]: significantly increases the permeability | permeability of fluorescein conjugated dextran of 4 kDa (cumulative release) [5, 8]: increased the permeability of the fluorescein conjugated dextran of 4 kDa in a significant manner | Papp for FD of 150 kDa over time ([5]; peptide 10 μM, 150 minutes): immediate increase in the first 30 minutes and steadily decreased therefrom | reversibility of permeabilization of FD 4 kDa (decrease in Papp overtime) ([5]; peptide 10 μM, 150 minutes): reversible | reversibility of the permeabilization effect, FD of 150 kDa ([5]; peptide 10 μM, FIG. 6): Reversibility of the permeabilization effect was also observed | redistribution of occludin and ZO-1 [6]: causes desired TJ proteins redistribution | redistribution of occludin and ZO-1 [7]: causes desired TJ proteins redistribution

N-acetyl-ARR [Peptide C2, reference compound]
permeability of fluorescein conjugated dextran of 4 kDa (cumulative release) [1, 8]: not differing from control | permeability of fluorescein conjugated dextran of 4 kDa (cumulative release) [5, 8]: not differing from control

CCCCCCCCCCCCCC(=O)N[C@@H](CO)C(=O)N[C@H](C(=O)N[C@@H](Cc1ccc(O)cc1)C(=O)N[C@@H](CCCNC(=N)N)C(=O)N[C@@H](CCCNC(=N)N)C(=O)NCC(=O)N[C@@H](C)C(=O)N[C@@H](CCCNC(=N)N)C(=O)N[C@@H](CCCNC(=N)N)C(=O)N[C@@H](Cc1c[nH]c2ccccc12)C(=O)N[C@@H](CCCNC(=N)N)C(=O)N[C@@H](CCCCN)C(=O)N[C@@H](CC(C)C)C(=O)O)[C@@H](C)CC [Peptide C1, reference compound] (Myristoyl-SIYRRGARRWRKL-OH; C-terminus assumed)
reversibility of permeabilization of FD 4 kDa (decrease in Papp overtime) ([1]; peptide 10 μM, 150 minutes): reversible | viability at 24 h, 50 µM (in vitro): 55.2% | viability at 24 h, 100 µM (in vitro): 34% | reversibility of permeabilization of FD 4 kDa (decrease in Papp overtime) ([5]; peptide 10 μM, 150 minutes): reversible

ARRWR (not fully specified (N-terminus)) [Peptide C3, same peptide as P1 without the myristoyl group, reference compound]
permeability of fluorescein conjugated dextran of 4 kDa (cumulative release) [1, 8]: did not show significant difference in permeabilization ability compared to the negative control | permeability of fluorescein conjugated dextran of 4 kDa (cumulative release) [5, 8]: did not show significant difference in permeabilization ability compared to the negative control
